Assay results: US10189786B2, “Antibacterial compounds” (Duke University, priority 2013, dated 2019)
Values after ≈ are worked out from the molar mass of the structure shown.

Columns and labels:
Assay type in all cases: cell-based
[1] = system: N. gonorrhoeae 35/02 (drug-resistant strain); assay: Disk diffusion assay, N. gonorrhoeae 35/02; conditions: disc 6 mm; for zone of inhibition at 0.2 µg/disc / zone of inhibition at 2 µg/disc / zone of inhibition at 20 µg/disc: Neisseria gonorrhoeae, read-out: diameter of the growth inhibition, 35/02
Procedure: (§1) An assay was performed on two strains of Acinetobacter Baumannii: antibiotic susceptible strain (Sus. A.b. Isolate), and multidrug-resistant strains (MDR A.b. Isolate). […] Activity is measured as the diameter (in mm) of the growth inhibition.

[2] = system: N. gonorrhoeae FA19 (a drug-sensitive strain); assay: Disk diffusion assay, N. gonorrhoeae FA19; conditions: disc 6 mm; for zone of inhibition at 2 µg/disc / zone of inhibition at 20 µg/disc / zone of inhibition at 0.2 µg/disc: Neisseria gonorrhoeae, read-out: diameter of the growth inhibition, FA19
Procedure: as §1

P. aeruginosa PAO1 = assay: MIC assay, P. aeruginosa PAO1
E. coli W3110 = assay: microbe, parasite or virus in culture; conditions: wild-type E. coli W3110, 22 hours at 37° C., MTT; for MIC: Escherichia coli, W3110, 22 h
N. gonorrhoeae H041 = assay: Disk diffusion assay, N. gonorrhoeae H041; conditions: disc 6 mm; for zone of inhibition at 0.2 µg/disc / zone of inhibition at 2 µg/disc / zone of inhibition at 20 µg/disc: Neisseria gonorrhoeae, read-out: diameter of the growth inhibition, H041; for zone of inhibition at 0.2 µg/disc: H041, 0.2 μg per disc; for zone of inhibition at 2 µg/disc: H041, 2.0 μg per disc; for zone of inhibition at 20 µg/disc: H041, 20 μg per disc
Procedure: as §1

[3] = system: N. gonorrhoeae F89 (high-level cefixime and ceftriaxone resistance); assay: Disk diffusion assay, N. gonorrhoeae F89; conditions: disc 6 mm; for zone of inhibition at 0.2 µg/disc / zone of inhibition at 2 µg/disc / zone of inhibition at 20 µg/disc: Neisseria gonorrhoeae, read-out: diameter of the growth inhibition, F89
Procedure: as §1

E. coli W3110PA = assay: microbe, parasite or virus in culture; conditions: Escherichia coli, W3110PA, E. coli with native lpxC replaced by that of P. aeruginosa

SMILES	zone of inhibition at 2 µg/disc ([2]; 2.0 μg per disc) [mm]	MIC (E. coli W3110) [µg/mL]	zone of inhibition at 20 µg/disc ([2]; 20 μg per disc) [mm]	zone of inhibition at 0.2 µg/disc ([1]; 0.2 μg per disc) [mm]	zone of inhibition at 2 µg/disc ([1]; 2.0 μg per disc) [mm]	zone of inhibition at 20 µg/disc ([1]; 20 μg per disc) [mm]	zone of inhibition at 0.2 µg/disc ([2]; 0.2 μg per disc) [mm]	zone of inhibition at 0.2 µg/disc (N. gonorrhoeae H041) [mm]	zone of inhibition at 2 µg/disc (N. gonorrhoeae H041) [mm]	zone of inhibition at 20 µg/disc (N. gonorrhoeae H041) [mm]	zone of inhibition at 0.2 µg/disc ([3]; 0.2 μg per disc) [mm]	zone of inhibition at 2 µg/disc ([3]; 2.0 μg per disc) [mm]	zone of inhibition at 20 µg/disc ([3]; 20 μg per disc) [mm]	further results
CC(NCCCc1ccc(-c2ccccc2)cc1)(C(=O)NO)C(C)(O)C(F)F.Cl (single isomer, unassigned) [Example 134]	–	–	–	–	–	–	–	–	–	–	–	–	–	diameter of the growth inhibition, 35/02 ([1]; 0.2 μg per disc): 12 mm; diameter of the growth inhibition, 35/02 ([1]; 2.0 μg per disc): 23 mm; diameter of the growth inhibition, 35/02 ([1]; 20 μg per disc): 28 mm; diameter of the growth inhibition, FA19 ([2]; 0.2 μg per disc): 14 mm; diameter of the growth inhibition, FA19 ([2]; 2.0 μg per disc): 24 mm; diameter of the growth inhibition, FA19 ([2]; 20 μg per disc): 30 mm; MIC P. aeruginosa PAO1 (P. aeruginosa PAO1): 2.5 µg/mL; MIC E. coli W3110 (E. coli W3110): 1.25 µg/mL; diameter of the growth inhibition, H041 (N. gonorrhoeae H041; 0.2 μg per disc): 14 mm; diameter of the growth inhibition, H041 (N. gonorrhoeae H041; 2.0 μg per disc): 21 mm; diameter of the growth inhibition, H041 (N. gonorrhoeae H041; 20 μg per disc): 26 mm; diameter of the growth inhibition, F89 ([3]; 0.2 μg per disc): 21 mm; diameter of the growth inhibition, F89 ([3]; 2.0 μg per disc): 28 mm; diameter of the growth inhibition, F89 ([3]; 20 μg per disc): 36 mm
CC(NCCCc1ccc(-c2ccccc2)cc1)(C(=O)NO)C(C)(O)C(F)F.Cl (single isomer, unassigned) [Example 135]	–	–	–	–	–	–	–	–	–	–	–	–	–	diameter of the growth inhibition, 35/02 ([1]; 0.2 μg per disc): 8 mm; diameter of the growth inhibition, 35/02 ([1]; 2.0 μg per disc): 14 mm; diameter of the growth inhibition, 35/02 ([1]; 20 μg per disc): 19 mm; diameter of the growth inhibition, FA19 ([2]; 0.2 μg per disc): 8 mm; diameter of the growth inhibition, FA19 ([2]; 2.0 μg per disc): 19 mm; diameter of the growth inhibition, FA19 ([2]; 20 μg per disc): 26 mm; MIC P. aeruginosa PAO1 (P. aeruginosa PAO1): 20 µg/mL; MIC E. coli W3110 (E. coli W3110): 10 µg/mL; diameter of the growth inhibition, H041 (N. gonorrhoeae H041; 0.2 μg per disc): 8 mm; diameter of the growth inhibition, H041 (N. gonorrhoeae H041; 2.0 μg per disc): 14 mm; diameter of the growth inhibition, H041 (N. gonorrhoeae H041; 20 μg per disc): 23 mm; diameter of the growth inhibition, F89 ([3]; 0.2 μg per disc): 15 mm; diameter of the growth inhibition, F89 ([3]; 2.0 μg per disc): 27 mm; diameter of the growth inhibition, F89 ([3]; 20 μg per disc): 30 mm
Cc1ccc(-c2ccc(CN[C@H](C(=O)NO)[C@](C)(O)C(F)F)s2)s1 [Example 7, (2S,3S)-4,4-difluoro-N,3-dihydroxy-3-methyl-2-((5′-methyl-2,2′-bithiophen-5-yl)methylamino)butanamide]	21	50 (≈ 133 µM)	–	–	–	–	–	–	–	–	–	–	–	MIC (E. coli W3110PA): 25 µg/mL (≈ 66.4 µM)
C[C@@](O)(C(F)F)[C@H](NCc1ccc(-c2cccs2)s1)C(=O)NO [Example 8, (2S,3S)-2-(2,2′-bithiophen-5-ylmethylamino)-4,4-difluoro-N,3-dihydroxy-3-methylbutanamide]	19	25 (≈ 69 µM)	–	–	–	–	–	–	–	–	–	–	–	MIC (E. coli W3110PA): 25 µg/mL (≈ 69 µM)
CC(NCCc1ccc(-c2ccccc2)cc1)(C(=O)NO)C(C)(O)C(F)F (stereo not shown) [Example 12, 2-(2-(biphenyl-4-yl)ethylamino)-4,4-difluoro-N,3-dihydroxy-2,3-dimethylbutanamide]	< 19	> 40	–	–	–	–	–	–	–	–	–	–	–	MIC (P. aeruginosa PAO1; Pseudomonas aeruginosa, PAO1, P. aeruginosa PAO1): > 40 µg/mL
CC(NCCc1ccc(-c2ccccc2)cc1)(C(=O)NO)C(C)(O)C(F)F.Cl (stereo not shown) [Example 136]	–	–	–	–	–	–	–	–	–	–	–	–	–	MIC P. aeruginosa PAO1 (P. aeruginosa PAO1): >40 µg/mL; MIC E. coli W3110 (E. coli W3110): >40 µg/mL
COc1ccc(-c2ccc(CCCN[C@H](C(=O)NO)[C@](C)(O)C(F)F)cc2)cc1 [Example 137]	–	12 (≈ 29.4 µM)	–	–	–	–	–	–	–	–	–	–	–	–
C[C@@](O)(C(F)F)[C@H](NCCCc1ccc(-c2ccc(CN3CCOCC3)cc2)cc1)C(=O)NO [Example 138]	–	3 (≈ 6.28 µM)	–	–	–	–	–	–	–	–	–	–	–	–
CC(O)(CF)C(C)(NCCCc1ccc(-c2ccccc2)cc1)C(=O)NO.Cl (stereo not shown) [Example 139]	–	–	–	–	–	–	–	–	–	–	–	–	–	diameter of the growth inhibition, 35/02 ([1]; 0.2 μg per disc): 7 mm; diameter of the growth inhibition, 35/02 ([1]; 2.0 μg per disc): 15 mm; diameter of the growth inhibition, 35/02 ([1]; 20 μg per disc): 22 mm; diameter of the growth inhibition, FA19 ([2]; 0.2 μg per disc): 11 mm; diameter of the growth inhibition, FA19 ([2]; 2.0 μg per disc): 20 mm; diameter of the growth inhibition, FA19 ([2]; 20 μg per disc): 24 mm; MIC E. coli W3110 (E. coli W3110): 50 µg/mL; diameter of the growth inhibition, H041 (N. gonorrhoeae H041; 0.2 μg per disc): 7 mm; diameter of the growth inhibition, H041 (N. gonorrhoeae H041; 2.0 μg per disc): 14 mm; diameter of the growth inhibition, H041 (N. gonorrhoeae H041; 20 μg per disc): 21 mm; diameter of the growth inhibition, F89 ([3]; 0.2 μg per disc): 11 mm; diameter of the growth inhibition, F89 ([3]; 2.0 μg per disc): 20 mm; diameter of the growth inhibition, F89 ([3]; 20 μg per disc): 28 mm
COc1ccc(-c2ccn(CCCNC(C)(C(=O)NO)C(C)(O)CF)c(=O)c2)cc1 (stereo not shown) [Example 140]	13	100 (≈ 237 µM)	22	–	–	–	–	–	–	–	–	–	–	–
C[C@@](O)(C(F)F)[C@H](NCc1ccc(-c2ccccc2)cc1O)C(=O)NO [Example 141]	21	50 (≈ 136 µM)	28	7	16	25	12	0	15	22	10	22	30	–
COc1ccc(-c2ccc(CN[C@H](C(=O)NO)[C@](C)(O)C(F)F)cc2)cc1 [Example 142]	16	100 (≈ 263 µM)	21	0	11	20	0	0	8	17	0	16	24	–
CN1CCN(Cc2ccc(-c3ccc(CCCN[C@H](C(=O)NO)[C@](C)(O)C(F)F)cc3)cc2)CC1 [Example 144]	0	50 (≈ 102 µM)	0	0	0	0	0	0	0	0	0	0	0	–
C[C@@](O)(C(F)F)[C@H](NCc1ccc(-c2ccc(OCCN3CCOCC3)cc2)cc1)C(=O)NO [Example 145]	0	25 (≈ 52.1 µM)	14	0	0	12	0	0	7	11	0	7	21	–
COc1cc(-c2ccccc2)ccc1CN[C@H](C(=O)NO)[C@](C)(O)C(F)F [Example 146]	10	–	25	0	0	16	0	0	8	19	0	11	27	–
C[C@@](O)(C(F)F)[C@H](NC/C=C/c1ccc(-c2ccccc2)cc1)C(=O)NO [Example 147]	28	–	32	17	28	34	22	14	30	35	28	33	38	–
CC(NCCCc1ccc(-c2ccccc2)cc1)(C(=O)NO)C(O)(CF)CF (stereo not shown) [Example 148]	19	–	27	0	17	24	12	9	15	24	13	19	27	–
C[C@@](O)(C(F)F)[C@H](NCc1ccc2cc(-c3ccccc3)ccc2c1)C(=O)NO [Example 149]	22	–	26	11	22	25	15	10	24	27	19	24	30	–
